Consider one compound from patent EP0552018A1, “Use of Rifabutin for delaying or preventing mycobacterial infections” (Erbamont Inc., priority 1992, dated 1993).

The subject of one data set is M. tuberculosis. The data set is described as follows: Same clinical trial: occurrence of M. tuberculosis infections. The settings on record: rifabutin 300 mg/day; three patients on the placebo arm developed M. tuberculosis infections. It is filed as in vivo, human. Here is the method: The efficacy of rifabutin on the prevention of MAC disease in HIV positive patients having a CD4 count of ≦200/mm³ was assessed in a large multicenter controlled trial in the United States.
Five hundred ninety (590) patients with CD4 counts ≦200/mm³; and with no clinical evidence of MAC infection (as determined by two blood cultures) were randomly assigned to receive either rifabutin monotherapy (300 mg/day) or placebo. Nine of these patients, five in the rifabutin group and four in the placebo group, who were enrolled with presumptive negative evidence of MAC blood cultures were subsequently found to have had MAC bacteremia at baseline and were excluded from the study. Fifty-six of the 581 patients who had confirmed negative cultures at baseline developed MAC infection after having enrolled in the study. Eighteen of those 56 patients were in the rifabutin group and the other 38 were in the placebo group. After excluding seven patients from each group who were considered to be inevaluable, the treatment groups were compared with respect to the incidence of MAC infection; the observed difference was highly statistically significant (p=0.002, Chi-squared test).
Three patients on the placebo arm of the study developed M. tuberculosis infections (other than MAC) while no patients receiving rifabutin developed tuberculosis. […]

The test system of data set [1] is atypical mycobacterial infection. The data set is described as follows: Same clinical trial: occurrence of atypical mycobacterial infection. It is filed as in vivo, human. The settings on record: rifabutin 300 mg/day; one patient on the placebo arm developed it.
For data set [2] the following is noted: cited from earlier work.
Data set [3] has as its system Mycobacterium avium complex (MAC). The experiment in a line: Multicenter, randomized, placebo controlled clinical trial: prevention or delay of MAC infection in AIDS patients. Format: in vivo, human.

Regarding `CO[C@H]1/C=C/O[C@@]2(C)Oc3c(C)c(O)c4c(c3C2=O)C2=NC3(CCN(CC(C)C)CC3)NC2=C(NC(=O)/C(C)=C\C=C\[C@H](C)[C@H](O)[C@@H](C)[C@@H](O)[C@@H](C)[C@H](OC(C)=O)[C@@H]1C)C4=O` [rifabutin, 4-dioxo-3,4-[2-spiro-(N-isobutyl-4-piperidyl)-2,5-dihydro-1H-imidazo]-rifamycin S], in the data set on M. tuberculosis, the “Patients who developed tuberculosis” value is given as “no patients”. In addition, the “Patients who developed atypical mycobacterial infection” value in data set [1] was “no patients”. In addition, in data set [2] (chloroform), the Solubility in chloroform entry was “soluble”. Besides, in data set [2] (methanol), the Solubility in methanol entry is on record as “soluble”. In addition, the Solubility in water entry in data set [2] (water) is on record as “very slightly soluble”. Moreover, the “Patients who developed MAC infection after having enrolled in the study” value in data set [3] (HIV positive patients, CD4 ≦200/mm³, rifabutin monotherapy 300 mg/day oral, of 581 patients with confirmed negative cultures at baseline, before excluding inevaluable patients) was “Eighteen”. For the same compound, the “Time of MAC infection in patients who got a MAC infection” value in data set [3] (analysis by Kaplan/Meier Methodology, compared with placebo) is on record as “significantly later than patients on placebo”. Also, the “Likelihood of placebo patients to die or to experience a MAC event relative to patients receiving rifabutin” value in data set [3] (at any point in time, on average, Kaplan/Meier analysis) is listed as 2.3 times. The “Number of: Patients without MAC” value in data set [3] (evaluable patients, rifabutin 300 mg/day, group total 280) came out at 269. For the same compound, the “Number of: Patients with MAC” value in data set [3] (evaluable patients, rifabutin 300 mg/day, group total 280, vs placebo x^2 = 9.76, P ≅ 0.002) is reported as 11.
